Measured values: patent US10292997B2, “Compositions and methods for stimulating wound healing” (priority 2011, dated 2019)

Test system: full thickness skin wounds
Experiment: Wound closure rate of excised full thickness skin wounds treated with gel formulations
Format: in vivo, Hartley-derived albino guinea pigs

**Q.** Which results are given for “Insulin: Insulin alone as control; non-steroidal anabolic hormone, vehicle not stated in the table”?
**A.** Peak Closure Day (day of maximum closure rate): 3.0 days; Closure % (day) 50% (day on which 50% wound closure is reached, gel about 1 cc/cm^2, dressing changed every 48 hours): 5.0 days; % Closure at Peak Closure Day (wound closure reached on the peak closure day): 30%
